According to US11376214B2, “Compositions and methods for treatment of ocular diseases” (KIORA PHARMACEUTICALS, INC., priority 2019, dated 2022):
Where a name gives a salt, the structure may show the parent alone. Read-outs that look alike come from different tables or passages of the source.

Legend:
[1] = Rheological testing (parallel plate rheometer): viscosity and shear-thinning; type: physicochemical; details: antibiotic 1 mg/ml incorporated in hydrogel (CMHA-S about 7.5 mg/ml)
Description: Thiol-modified carboxymethyl HA (CMHA-S) was synthesized as described in Lawyer et al. and Wendling et al., with a thiol modification of 0.1, 0.2, 0.4, or 0.7 μmol thiol/mg. Hydrogels were created by dissolving CMHA-S in phosphate-buffered saline (PBS; pH 7.4). The CMHA-S was disulfide crosslinked under continuous mixing with the addition of sodium hypochlorite. Rheological testing was performed using a parallel plate format rheometer with a 25 mm-diameter stainless steel geometry. Samples (5-6 ml) of hydrogel were placed in a 35 mm Petri dish, and the geometry was lowered to a gap of 5 mm. To determine viscosity and shear-thinning, the shear rate was varied from 0.1 to 10 Hz. A decreasing viscosity as shear rate increases indicates shear-thinning behavior. Table 1 provides the thiol modification of the CMHA-S, concentration of CMHA-S, and resultant viscosity of the hydrogel (at 2.5 Hz) for 4 hydrogel formulations.
(§1) Viscosity, pH, and refractive index (RI) were measured for hydrogels described in Example 2 with and without antibiotic incorporated. […] Viscosity was determined as described in Example 1. RI was measured with a refractometer and pH was measured with a pH meter.

[2] = Refractive index by refractometer; type: physicochemical; details: antibiotic 1 mg/ml incorporated in hydrogel (CMHA-S about 7.5 mg/ml)
Description: as §1

pH by pH meter = type: physicochemical; details: antibiotic 1 mg/ml incorporated in hydrogel (CMHA-S about 7.5 mg/ml)
Description: as §1

[3] = cited from earlier work
[4] = Release of antibiotic from hydrogel or PBS in dialysis chamber; type: physicochemical
Description: For this assessment, a 0.5 ml sample of hydrogel plus drug or PBS plus drug was placed into a medi-dialysis chamber, and the chamber was placed in a beaker containing 100 ml of PBS. The remaining amount of drug in the dialysis chamber was monitored using UV spectroscopy at various time points. […] The release was monitored as described above. […] Another drug release study was performed, with Moxi-FB and Besi-HCl as the antibiotics, a hydrogel with 7.5 mg/ml CMHA-S, and the antibiotics incorporated at 10 mg/ml. For this study, the samples were placed in a dialysis chamber that was then placed in a tube that contained 10 ml of PBS. The dialysis chamber was transferred to a new tube at each time point, and the dialysate was analyzed by UV absorption (rather than the material inside the dialysis chamber), and the released amount of drug was calculated (rather than the amount remaining). In this experimental set-up, drug release from the hydrogel was slower than from PBS (FIGS. 4A and 4B). Despite the poor water solubility of Besi-HCl compared to Moxi-FB, Besi-HCl was still released from the hydrogel.

Pseudomonas aeruginosa = test: Zone of inhibition (ZOI) study of dialysate samples; type: cell-based; details: P. aeruginosa
Description: (§2) To verify the efficacy of a drug in the hydrogel, zone of inhibition (ZOI) studies were conducted. […] Samples of the dialysate were collected at 0, 1, 2, 4, and 8 hours. Filter paper disks were soaked in each sample, placed on a bacteria-inoculated plate, and the ZOIs were compared between PBS group and hydrogel group.

Staphylococcus aureus = test: as above; type: cell-based; details: S. aureus
Description: as §2

[5] = released from PBS (1 mg/ml), dialysate at 4 hrs
[6] = released from PBS (1 mg/ml), dialysate at 8 hrs
[7] = released from hydrogel (CMHA-S 7.5 mg/ml, drug 1 mg/ml), dialysate at 8 hrs

In the case of `NC[C@H]1O[C@H](O[C@H]2[C@H](O)[C@@H](O[C@H]3O[C@H](CO)[C@@H](O)[C@H](N)[C@H]3O)[C@H](N)C[C@@H]2N)[C@H](N)C[C@@H]1O` [Tobramycin, tobramycin], the “Viscosity at 2.5 Hz” value [1] is reported as 1.4 Pa · s, the Refractive index [2] is reported as 1.3355 and the pH (pH by pH meter) is reported as 8.6. The solubility in water [3] was over 50 mg/mL.

In the case of `COc1c(N2C[C@@H]3CCCN[C@@H]3C2)c(F)cc2c(=O)c(C(=O)O)cn(C3CC3)c12` [Moxi-HCl, moxifloxacin hydrochloride], the “Viscosity at 2.5 Hz” value ([1]; hydrochloride) is reported as 1.6 Pa · s, the Refractive index ([2]; hydrochloride) is reported as 1.3355 and the pH (pH by pH meter; hydrochloride) is reported as 7.0. The “drug release from hydrogel compared with PBS” value ([4]; drug 1 mg/ml in hydrogel #4 (CMHA-S 4.0 mg/ml)) was “slightly slower”, the “time within which release was complete” value ([4]; drug 1 mg/ml in hydrogel #4 (CMHA-S 4.0 mg/ml), medi-dialysis chamber in 100 ml PBS) was at most 4 h and the “drug release from hydrogel compared with PBS” value ([4]; drug 1 mg/ml in hydrogel (CMHA-S about 7.5 mg/ml), medi-dialysis chamber in 100 ml PBS) was “only slightly slowed down”. The ZOI (Pseudomonas aeruginosa; [5]) was 24.7 ± 2.8 mm, the ZOI (Pseudomonas aeruginosa; [6]) was 20.5 ± 1.8 mm and the ZOI (Pseudomonas aeruginosa; released from hydrogel (CMHA-S 7.5 mg/ml, drug 1 mg/ml), dialysate at 1 hrs) was 28.7 ± 0.3 mm. It also gave a ZOI (Pseudomonas aeruginosa; released from hydrogel (CMHA-S 7.5 mg/ml, drug 1 mg/ml), dialysate at 4 hrs) of 26.8 ± 1.4 mm, a ZOI (Pseudomonas aeruginosa; [7]) of 26.5 ± 3.2 mm and a ZOI (Staphylococcus aureus; released from PBS (1 mg/ml), dialysate at 2 hrs) of 28.3 ± 1.0 mm. The ZOI (Staphylococcus aureus; [5]) was 26.5 ± 2.5 mm, the ZOI (Staphylococcus aureus; [6]) was 23.5 ± 2.8 mm and the ZOI (Staphylococcus aureus; [7]) was 27.2 ± 1.3 mm. For the same molecule, the solubility in water ([3]; hydrochloride) was about 20 mg/mL.

For `N[C@@H]1CCCCN(c2c(F)cc3c(=O)c(C(=O)O)cn(C4CC4)c3c2Cl)C1` [Besi-HCl, besifloxacin hydrochloride], the “drug release from hydrogel compared with PBS” value ([4]; antibiotic 10 mg/ml in hydrogel with 7.5 mg/ml CMHA-S, dialysis chamber in 10 ml PBS, new tube at each time point, dialysate UV) is given as “slower” and the solubility in water [3] is given as “about 1 mg/ml”.

For `COc1c(N2C[C@@H]3CCCN[C@@H]3C2)c(F)cc2c(=O)c(C(=O)O)cn(C3CC3)c12` [Moxi-FB, moxifloxacin], the solubility in water [3] is given as “about 1 mg/ml”.
